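The compound was tested at five concentrations on cells cultured in 96-well plates, with a 48-hour exposure period. GI50 marks 50% less growth. TGI denotes the concentration required for complete inhibition of growth.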
Assays:
Test in all cases: DTP human tumour cell line panel, 48 h; in the data active = GI50 below about 0.43 µM; inactive = the rest
[1] = tested on: A549 NSCLC
[2] = tested on: KM12 colon
[3] = tested on: 786-0 renal
[4] = tested on: EKVX NSCLC
[5] = tested on: SF-539 CNS
[6] = tested on: MCF7 breast
[7] = tested on: M14 melanoma
[8] = tested on: SK-OV-3 ovarian
[9] = tested on: SK-MEL-5 melanoma
[10] = tested on: RPMI-8226 leukemia
[11] = tested on: DU-145 prostate
[12] = tested on: MOLT-4 leukemia
[13] = tested on: LOX IMVI melanoma
[14] = tested on: IGROV1 ovarian
[15] = tested on: ACHN renal
[16] = tested on: NCI-H522 lung
[17] = tested on: BT-549 breast
[18] = tested on: OVCAR-8 ovarian
[19] = tested on: NCI/ADR-RES ovarian
[20] = tested on: HOP-92 NSCLC
[21] = tested on: NCI-H23 lung
[22] = tested on: OVCAR-4 ovarian
[23] = tested on: SNB-75 CNS
[24] = tested on: NCI-H226 lung
[25] = tested on: SF-268 CNS
[26] = tested on: HCT-15 colon
[27] = tested on: SF-295 CNS
[28] = tested on: CAKI-1 renal
[29] = tested on: UO-31 renal
[30] = tested on: SK-MEL-2 melanoma
[31] = tested on: PC-3 prostate
[32] = tested on: HL-60(TB) leukemia
[33] = tested on: K-562 leukemia
[34] = tested on: CCRF-CEM leukemia
[35] = tested on: T-47D breast
[36] = tested on: HT29 colon
[37] = tested on: NCI-H460 lung
[38] = tested on: HCT-116 colon
[39] = tested on: COLO 205 colon
[40] = tested on: HOP-62 NSCLC
[41] = tested on: OVCAR-5 ovarian
[42] = tested on: HS 578T breast
[43] = tested on: SNB-19 CNS
[44] = tested on: SW-620 colon
[45] = tested on: MDA-MB-435
[46] = tested on: RXF 393 renal
[47] = tested on: OVCAR-3 ovarian
[48] = tested on: HCC-2998 colon
[49] = tested on: UACC-257 melanoma
[50] = tested on: A498 renal
[51] = tested on: SN12C renal
[52] = tested on: UACC-62 melanoma
[53] = tested on: U251 CNS
[54] = tested on: MDA-MB-231 breast
[55] = tested on: TK-10 renal
[56] = tested on: SR leukemia

S=c1sc2ccccc2n1CN1CCN(Cc2ccccc2)CC1
> 100 µM: TGI [1] | TGI [2] | TGI [3] | TGI [4] | TGI [5] | TGI [6] | TGI [7] | TGI [8] | TGI [9] | TGI [10] | TGI [11] | TGI [12] | TGI [13] | TGI [14] | TGI [15] | TGI [16] | TGI [17] | TGI [18] | TGI [19] | TGI [20] | TGI [21] | TGI [22] | TGI [23] | TGI [24] | TGI [25] | TGI [26] | TGI [27] | TGI [28] | TGI [29] | TGI [30] | TGI [31] | TGI [32] | TGI [33] | TGI [34] | TGI [35] | TGI [36] | TGI [37] | TGI [38] | TGI [39] | TGI [40] | TGI [41] | TGI [42] | TGI [43] | TGI [44] | TGI [45] | TGI [46] | TGI [47] | TGI [48] | TGI [49] | TGI [50] | TGI [51] | TGI [52] | TGI [53]

COC(=O)C1=C(O)C(C(=O)OC)[C@@]2(O)[C@@H](C(=O)OC)C(c3ccc(OC(=O)C(Cc4ccccc4)NC(C)=O)cc3)C[C@@H]1[C@@H]2C(=O)OC (stereo partly specified)
71.4 µM: TGI [10]
95.3 µM: TGI [6]
88.3 µM: TGI [25]
50.2 µM: TGI [45]
91 µM: TGI [31]
54.3 µM: TGI [40]
59.2 µM: TGI [18]
47.2 µM: TGI [7]
32.8 µM: TGI [53]
28.4 µM: TGI [26]
44.1 µM: TGI [55]
41.3 µM: TGI [2]
75.1 µM: TGI [24]
46.4 µM: TGI [12]
58.8 µM: TGI [54] | TGI [20]
62.1 µM: TGI [51]
40.9 µM: TGI [52]
inactive: GI50 [1] 20.6 µM | GI50 [2] 15.3 µM | GI50 [3] 18.3 µM | GI50 [4] 95.7 µM | GI50 [5] 33.6 µM | GI50 [6] 17 µM | GI50 [7] 20.7 µM | GI50 [8] 37.5 µM | GI50 [9] 18 µM | GI50 [10] 20.6 µM | GI50 [12] 14.8 µM | GI50 [13] 18 µM | GI50 [14] 45.7 µM | GI50 [16] 28.3 µM | GI50 [54] 21 µM | GI50 [55] 18.5 µM | GI50 [17] 38 µM | GI50 [18] 23.1 µM | GI50 [19] 60.7 µM | GI50 [20] 21.4 µM | GI50 [21] 19.9 µM | GI50 [24] 25.5 µM | GI50 [25] 21.9 µM | GI50 [26] 13.3 µM | GI50 [27] 32.8 µM | GI50 [28] 38.7 µM | GI50 [29] 35.7 µM | GI50 [30] 47.4 µM | GI50 [31] 27.6 µM | GI50 [56] 3.35 µM | GI50 [33] 19.1 µM | GI50 [34] 32.9 µM | GI50 [35] 39.2 µM | GI50 [36] 15.6 µM | GI50 [37] 20.5 µM | GI50 [38] 20.6 µM | GI50 [39] 27.9 µM | GI50 [40] 22.5 µM | GI50 [41] 35 µM | GI50 [42] 20.4 µM | GI50 [43] 36.4 µM | GI50 [44] 29.7 µM | GI50 [45] 23.5 µM | GI50 [46] 25.4 µM | GI50 [49] 13.9 µM | GI50 [50] 24.5 µM | GI50 [51] 22.6 µM | GI50 [52] 16.1 µM | GI50 [53] 15.9 µM
50.5 µM: TGI [49]
45.1 µM: TGI [38]
97.3 µM: TGI [41]
48.1 µM: TGI [21]
43.5 µM: TGI [3]
> 100 µM: TGI [4] | TGI [8] | TGI [14] | TGI [16] | TGI [17] | TGI [19] | TGI [28] | TGI [29] | TGI [30] | TGI [56] | TGI [33] | TGI [34] | TGI [35] | TGI [37] | TGI [39] | TGI [43] | TGI [44]
57.5 µM: TGI [1]
73.1 µM: TGI [5]
33.6 µM: TGI [36]
39.3 µM: TGI [9]
51.2 µM: TGI [46]
69.3 µM: TGI [27]
62.9 µM: TGI [50]
75.3 µM: TGI [42]
32.2 µM: TGI [13]

Source: PubChem BioAssay (NCI)
